{"source": "paper PMC7933930", "about": "“Development of a small molecule that corrects misfolding and increases secretion of Z α1‐antitrypsin” (EMBO Molecular Medicine, 2021)", "key": {"[1]": {"system": "α1‐antitrypsin variants M, S, Baghdad, Z", "assay": "Association with α1‐antitrypsin variants M, S, Baghdad and Z (intrinsic tryptophan fluorescence)", "format": "binding, human", "conditions": "10 μM GSK716", "excerpt": "Polymerisation of α1‐antitrypsin involves transition through a transient intermediate state known as M*, that is readily populated by the Z variant (Dafforn et al, 1999; Knaupp et al, 2010). The M* conformational ensemble appears to be a distinct species between the native state conformation and that of the final polymer. One of the hallmarks of M* is its recognition by environment‐sensitive fluorescent reporter dyes. Thermal shift assays that make use of the dye SYPRO Orange report the stability of the protein native state against heat‐induced unfolding. […] Native state stability can also be probed by equilibrium unfolding using chemical denaturants, where a peak in bis‐ANS fluorescence corresponds with a maximally populated unfolding intermediate (James & Bottomley, 1998). […] The association of GSK716 induced a marked quenching and blue‐shift of the α1‐antitrypsin intrinsic tryptophan fluorescence spectrum (Fig 4D, inset). The rate of change in fluorescence during association of 10µM GSK716 was proportional to the propensity of α1‐antitrypsin mutants to form polymers in vivo: inert (M), mild (S), moderate (Baghdad) and severe (Z) α1‐antitrypsin (Fig 4D, top and bottom). […]"}, "[2]": {"system": "Z α1‐antitrypsin in CHO‐K1 Tet‐On cells", "assay": "Pulse‐chase of Z α1‐antitrypsin in CHO‐K1 Tet‐On cells", "format": "cell-based", "conditions": "10 μM GSK716", "experimental": "Figure 2 GSK716 inhibits polymerisation of Z α1‐antitrypsin in cell models of disease • A GSK716 was added to CHO‐TET‐ON‐Z‐A1AT cells (Ordóñez et al, 2013) with simultaneous induction of Z α1‐antitrypsin expression using doxycycline, and polymer load was quantified with the 2C1 monoclonal antibody that is specific to pathological polymers of α1‐antitrypsin (Miranda et al, 2010). […] Data were normalised to vehicle and a control compound from the GSK716 series at saturating concentration. […] It induced an approximately threefold increase in secreted levels of Z α1‐antitrypsin compared with vehicle control. This was apparent even after polymers had been allowed to form. Scale bar: 100 µm. Data presented as mean ± SD, n = 8 (secretion) and n = 6 (polymer inhibition). • E CHO tetracycline‐inducible cells expressing Z α1‐antitrypsin were induced with 0.5 μg/ml doxycycline for 48 h and treated with 10 μM GSK716. […] For every time point, NP‐40‐soluble and NP‐40‐insoluble fractions were separated and immunoprecipitated with the 2C1 mAb and resolved by 4–12% w/v SDS–PAGE and α1‐antitrypsin detected by immunoblotting. […] Cell viability was measured by Cell Counting Kit‐8. […] Samples were resolved by 4–12% w/v acrylamide SDS–PAGE and detected by autoradiography. • H The graphs show the effect of GSK716 on intracellular and extracellular Z α1‐antitrypsin (mean ± SEM, n = 2). […]"}}}
{"compound": "CCC[C@@H](NC(=O)c1cccc2c1CC(=O)N2)[C@@H](O)c1cccc(F)c1C", "note": "[GSK716]", "values": [{"measurement": "binding / rate of association across α1‐antitrypsin variants", "setting": "[1]", "value": "M < S < Baghdad < Z α1‐antitrypsin"}, {"measurement": "intracellular polymers, clearance and secretion in pulse‐chase", "setting": "[2]", "value": "abolished intracellular polymers"}]}
